According to patent publication US8969343B2, “Histone demethylase inhibitors” (priority 2012, dated 2015):

target: T1, JMJD2C (Homo sapiens, UniProt Q9H3R0); experiment: JMJD2C in vitro enzyme inhibition assay (TR-FRET); type: biochemical; conditions: 0.3 nM JMJD2C, 300 nM H3K9me3-biotin peptide, 2 μM alpha-ketoglutaric acid
T1 sequence (Q9H3R0 2-372): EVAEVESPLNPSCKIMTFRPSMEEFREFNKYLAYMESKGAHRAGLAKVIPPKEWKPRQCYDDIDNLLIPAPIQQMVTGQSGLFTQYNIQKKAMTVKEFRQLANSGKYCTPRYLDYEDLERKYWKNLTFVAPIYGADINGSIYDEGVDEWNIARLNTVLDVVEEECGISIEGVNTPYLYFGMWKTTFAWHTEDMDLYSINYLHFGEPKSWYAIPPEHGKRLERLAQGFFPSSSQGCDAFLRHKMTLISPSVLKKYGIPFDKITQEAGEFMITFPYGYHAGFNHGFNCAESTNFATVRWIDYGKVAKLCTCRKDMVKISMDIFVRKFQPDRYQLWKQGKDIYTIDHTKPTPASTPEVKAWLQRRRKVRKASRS
Description: This assay determines the ability of a test compound to inhibit Jarid1A, Jarid1B, and JMJD2C demethylase activity.
Reaction product was determined quantitatively by TR-FRET after the addition of detection reagent Phycolink Streptavidin-allophycocyanin (Prozyme) and Europium-anti-di-methylated histone H3 lysine 9 (H3K9me2) antibody (PerkinElmer) in the presence of 5 mM EDTA in LANCE detection buffer (PerkinElmer) at a final concentration of 50 nM and 1 nM, respectively.
The assay reaction was initiated by the following: 2 μl of the mixture of 900 nM H3K9me3-biotin labeled peptide and 6 μM alpha-ketoglutaric acid with 2 μl of 11-point serial diluted inhibitor in 3% DMSO were added to each well of the plate, followed by the addition of 2 μl of 0.9 nM JMJD2C to initiate the reaction. The reaction mixture was incubated at room temperature for 30 minutes, and terminated by the addition of 6 μl of 5 mM EDTA in LANCE detection buffer containing 100 nM Phycolink Streptavidin-allophycocyanin and 2 nM Europium-anti-H3K9me2 antibody.

| SMILES | IC50 |
| --- | --- |
| O=C(O)c1ccncc1Nc1nn(C2CCOC2)c2ccc(Cl)cc12 (centres unmarked) [Example 69, 3-{[5-chloro-1-(tetrahydrofuran-3-yl)-1H-indazol-3-yl]amino}pyridine-4-carboxylic acid] | 0.1 to 1 µM |
| O=C(O)c1ccncc1Nc1nn(CC2CCCO2)c2ccc(F)cc12 (centres unmarked) [Example 21, 3-{[5-fluoro-1-(tetrahydrofuran-2-ylmethyl)-1H-indazol-3-yl]amino}pyridine-4-carboxylic acid] | 0.1 to 1 µM |
| COCCn1nc(Nc2cnccc2C(=O)O)c2ccccc21 [Example 10, 3-{[1-(2-methoxyethyl)-1H-indazol-3-yl]amino}pyridine-4-carboxylic acid] | 0.1 to 1 µM |
| O=C(O)c1ccncc1Nc1nn(C2CCCC2)c2ccc(F)cc12 [Example 29, 3-[(1-cyclopentyl-5-fluoro-1H-indazol-3-yl)amino]pyridine-4-carboxylic acid] | 0.1 to 1 µM |
| Cc1ccc2c(c1)c(Nc1cnccc1C(=O)O)nn2CCC(F)(F)F [Example 39, 3-{[5-methyl-1-(3,3,3-trifluoropropyl)-1H-indazol-3-yl]amino}pyridine-4-carboxylic acid] | 0.1 to 1 µM |
| O=C(O)c1ccncc1Nc1nn(CC2CCC2)c2ccc(F)cc12 [Example 28, 3-{[1-(cyclobutylmethyl)-5-fluoro-1H-indazol-3-yl]amino}pyridine-4-carboxylic acid] | 0.1 to 1 µM |
| N#CNC(=O)c1ccncc1Nc1nn(CCN2CCCC2)c2ccc(Cl)cc12 [Example 79, N-cyano-3-({5-chloro-1-[2-(pyrrolidin-1-yl)ethyl]-1H-indazol-3-yl}amino)pyridine-4-carboxamide] | 0.1 to 1 µM |
| O=C(O)c1ccncc1Nc1nn(CC2CC2)c2ccc(Cl)cc12 [Example 34, 3-{[5-chloro-1-(cyclopropylmethyl)-1H-indazol-3-yl]amino}pyridine-4-carboxylic acid] | 0.1 to 1 µM |
| O=C(O)c1ccncc1Nc1nn(C2CCCOC2)c2ccc(F)cc12 (centres unmarked) [Example 63, 3-{[5-fluoro-1-(tetrahydro-2H-pyran-3-yl)-1H-indazol-3-yl]amino}pyridine-4-carboxylic acid] | 0.1 to 1 µM |
| Cn1cc(Nc2cnccc2C(=O)O)c2cccnc21 [Example 52, 3-[(1-methyl-1H-pyrrolo[2,3-b]pyridine-3-yl)amino]pyridine-4-carboxylic acid] | 0.1 to 1 µM |
| Cc1ccc2c(c1)c(Nc1cnccc1C(=O)O)nn2CC1CC1 [Example 37, 3-{[1-(cyclopropylmethyl)-5-methyl-1H-indazol-3-yl]amino}pyridine-4-carboxylic acid] | 0.1 to 1 µM |
| O=C(O)c1ccncc1Nc1cn(C2CCOC2)c2ccc(F)cc12 (centres unmarked) [Example 68, 3-{[5-fluoro-1-(tetrahydrofuran-3-yl)-1H-indol-3-yl]amino}pyridine-4-carboxylic acid] | 0.1 to 1 µM |
| CCCCCn1nc(Nc2cnccc2C(=O)O)c2cc(F)ccc21 [Example 18, 3-[(5-fluoro-1-pentyl-1H-indazol-3-yl)amino]pyridine-4-carboxylic acid] | 0.1 to 1 µM |
| CCC(C)n1nc(Nc2cnccc2C(=O)O)c2cc(F)ccc21 (centres unmarked) [Example 26, 3-{[5-fluoro-1-(butan-2-yl)-1H-indazol-3-yl]amino}pyridine-4-carboxylic acid] | 0.1 to 1 µM |
| Cn1nc(Nc2cnccc2C(=O)O)c2cc(Cl)ccc21 [Example 4] | 0.1 to 1 µM |
| CCCn1cc(Nc2cnccc2C(=O)O)c2cc(F)ccc21 [Example 57, 3-[(5-fluoro-1-propyl-1H-indol-3-yl)amino]pyridine-4-carboxylic acid] | 0.1 to 1 µM |
| O=C(O)c1ccncc1Nc1nn(CCC(F)(F)F)c2ccc(Cl)cc12 [Example 35, 3-{[5-chloro-1-(3,3,3-trifluoropropyl)-1H-indazol-3-yl]amino}pyridine-4-carboxylic acid] | 0.1 to 1 µM |
| O=C(O)c1ccncc1Nc1nn(CCC2CC2)c2ccc(F)cc12 [Example 31, 3-{[1-(cyclopropylethyl)-5-fluoro-1H-indazol-3-yl]amino}pyridine-4-carboxylic acid] | 0.1 to 1 µM |
| O=C(O)c1ccncc1Nc1cn(CCC(F)(F)F)c2ccc(Cl)cc12 [Example 59, 3-{[5-chloro-1-(3,3,3-trifluoropropyl)-1H-indol-3-yl]amino}pyridine-4-carboxylic acid] | 0.1 to 1 µM |

| SMILES | IC50 |
| --- | --- |
| O=C(O)c1ccncc1Nc1nn(CCC(F)(F)F)c2ccc(F)cc12 [Example 32, 3-{[5-fluoro-1-(3,3,3-trifluoropropyl)-1H-indazol-3-yl]amino}pyridine-4-carboxylic acid] | 0.1 to 1 µM |
| O=C(O)c1ccncc1Nc1nn(CC2CCCC2)c2ccc(F)cc12 [Example 30, 3-{[1-(cyclopentylmethyl)-5-fluoro-1H-indazol-3-yl]amino}pyridine-4-carboxylic acid] | 0.1 to 1 µM |
| N#CNC(=O)c1ccncc1Nc1nn(CCN2CCC(F)(F)CC2)c2ccc(F)cc12 [Example 74, N-cyano-3-({1-[2-(4,4-difluoropiperidin-1 yl)ethyl]-5-fluoro-1H-indazol-3-yl}amino)pyridine-4-carboxamide] | 1 to 10 µM |
| CCCn1nc(Nc2cnccc2C(=O)O)c2cc(C)ccc21 [Example 38, 3-[(5-methyl-1-propyl-1H-indazol-3-yl)amino]pyridine-4-carboxylic acid] | 0.1 to 1 µM |
| CCCn1nc(Nc2cnccc2C(=O)O)c2cc(F)ccc21 [Example 15, 3-[(5-fluoro-1-propyl-1H-indazol-3-yl)amino]pyridine-4-carboxylic acid] | 0.1 to 1 µM |
| CCCn1nc(Nc2cnccc2C(=O)O)c2cc(Cl)ccc21 [Example 33, 3-[(5-chloro-1-propyl-1H-indazol-3-yl)amino]pyridine-4-carboxylic acid] | 0.1 to 1 µM |
| CC(C)Cn1nc(Nc2cnccc2C(=O)NC#N)c2cc(F)ccc21 [Example 75, N-cyano-3-{[5-fluoro-1-(2-methylpropyl)-1H-indazol-3-yl]amino}pyridine-4-carboxamide] | 1 to 10 µM |
| O=C(O)c1ccncc1Nc1nn(CC(F)(F)F)c2ccc(F)cc12 [Example 23, 3-{[5-fluoro-1-(2,2,2-trifluoroethyl)-1H-indazol-3-yl]amino}pyridine-4-carboxylic acid] | 0.1 to 1 µM |
| N#CNC(=O)c1ccncc1Nc1nn(CCN2CCC(F)(F)C2)c2ccc(F)cc12 [Example 72, N-cyano-3-({1-[2-(3,3-difluoropyrrolidin-1 yl)ethyl]-5-fluoro-1H-indazol-3-yl}amino)pyridine-4-carboxamide] | 1 to 10 µM |
| N#CNC(=O)c1ccncc1Nc1nn([C@H]2CCOC2)c2ccc(F)cc12 [Example 70, N-cyano-3-({5-fluoro-1-[(3S)-tetrahydrofuran-3-yl]-1H-indazol-3-yl}amino)pyridine-4-carboxamide] | 1 to 10 µM |
| COc1ccc2c(Nc3cnccc3C(=O)O)nn(C)c2c1 [Example 8, 3-[(6-methoxy-1-methyl-1H-indazol-3-yl)amino]pyridine-4-carboxylic acid] | 0.1 to 1 µM |
| CCCn1nc(Nc2cnccc2C(=O)O)c2ccccc21 [Example 9, 3-[(1-propyl-1H-indazol-3-yl)amino]pyridine-4-carboxylic acid] | 0.1 to 1 µM |
| Cc1ccc2c(Nc3cnccc3C(=O)O)nn(C)c2c1 [Example 5, 3-[(1,6-dimethyl-1H-indazol-3-yl)amino]pyridine-4-carboxylic acid] | 0.1 to 1 µM |
| CCn1nc(Nc2cnccc2C(=O)O)c2cc(C)ccc21 [Example 36, 3-[(1-ethyl-5-methyl-1H-indazol-3-yl)amino]pyridine-4-carboxylic acid] | 0.1 to 1 µM |
| CN(C)CCCCn1nc(Nc2cnccc2C(=O)NC#N)c2cc(F)ccc21 [Example 76, N-cyano-3-({1-[4-(dimethylamino)butyl]-5-fluoro-1H-indazol-3-yl}amino)pyridine-4-carboxamide] | 0.1 to 1 µM |
| O=C(O)c1ccncc1Nc1nn(C2CCOCC2)c2ccc(F)cc12 [Example 62, 3-{[5-fluoro-1-(tetrahydro-2H-pyran-4-yl)-1H-indazol-3-yl]amino}pyridine-4-carboxylic acid] | 0.1 to 1 µM |
| O=C(O)c1ccncc1Nc1nn(CC2CC2)c2ccc(F)cc12 [Example 16, 3-{[1-(cyclopropylmethyl)-5-fluoro-1H-indazol-3-yl]amino}pyridine-4-carboxylic acid] | 0.1 to 1 µM |
| CC(C)Cn1nc(Nc2cnccc2C(=O)O)c2cc(F)ccc21 [Example 25, 3-{[5-fluoro-1-(2-methylpropyl)-1H-indazol-3-yl]amino}pyridine-4-carboxylic acid] | 0.1 to 1 µM |
| O=C(O)c1ccncc1Nc1nn(CCc2ccccc2)c2ccc(F)cc12 [Example 19, 3-{[5-fluoro-1-(2-phenethyl)-1H-indazol-3-yl]amino}pyridine-4-carboxylic acid] | 0.1 to 1 µM |
